{"source": "ChEMBL document CHEMBL5614376", "about": "“Discovery of MT-1207: A Novel, Potent Multitarget Inhibitor as a Promising Clinical Candidate for the Treatment of Hypertension” (J Med Chem, 2024)", "key": {"[1]": {"molecular_target": "T1, 5-hydroxytryptamine receptor 2A (Homo sapiens, UniProt P28223)", "T1 sequence (P28223 whole entry)": "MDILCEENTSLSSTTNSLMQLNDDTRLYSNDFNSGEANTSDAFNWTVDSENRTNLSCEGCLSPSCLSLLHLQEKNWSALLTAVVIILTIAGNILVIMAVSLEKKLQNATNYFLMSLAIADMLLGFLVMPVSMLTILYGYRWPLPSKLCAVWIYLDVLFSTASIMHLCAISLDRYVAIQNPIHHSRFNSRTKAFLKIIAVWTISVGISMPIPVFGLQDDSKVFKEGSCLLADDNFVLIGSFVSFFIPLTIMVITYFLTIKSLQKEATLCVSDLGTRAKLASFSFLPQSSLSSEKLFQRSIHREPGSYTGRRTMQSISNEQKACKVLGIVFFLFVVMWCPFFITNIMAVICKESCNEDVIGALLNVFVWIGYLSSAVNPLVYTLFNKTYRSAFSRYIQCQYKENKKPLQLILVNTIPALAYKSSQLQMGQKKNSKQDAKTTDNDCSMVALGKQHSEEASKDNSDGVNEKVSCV", "test": "Displacement of [3H]Ketanserin from recombinant human 5-HT2A receptor extracted from CHO cell membrane at 10 nM incubated for 60 mins by radioligand binding assay relative to control", "type": "cell membranes", "details": "filed as antagonist"}, "[2]": {"molecular_target": "T1, 5-hydroxytryptamine receptor 2A", "test": "Displacement of [3H]Ketanserin from recombinant human 5-HT2A receptor extracted from CHO cell membrane incubated for 60 mins by radioligand binding assay", "type": "cell membranes"}, "[3]": {"test": "Plasma protein binding in Sprague-Dawley rat at 0.1 uM incubated for 30 mins", "type": "ADME, cell-free", "details": "read-out: PPB (converted)"}, "[4]": {"test": "Plasma protein binding in Sprague-Dawley rat at 1 uM incubated for 30 mins", "type": "ADME, cell-free", "details": "read-out: PPB (converted)"}, "[5]": {"test": "Metabolic stability in macaque plasma assessed as enzymatic hydrolysis at 50 to 10000 ng/ml incubated upto 120 mins", "type": "ADME, cell-free", "details": "macaca, 2 h, dose 50-10000 ng/ml"}, "[6]": {"test": "Metabolic stability in Beagle dog liver microsomes assessed as drug metabolism at 10 umol/L incubated upto 120 mins in presence of NADPH by LC-MS/MS analysis", "type": "ADME, Canis lupus familiaris, Microsome", "details": "2 h, 10 µM, dose 10 µmol/L"}, "[7]": {"test": "Metabolic stability in macaque liver microsomes assessed as drug metabolism at 10 umol/L incubated upto 120 mins in presence of NADPH by LC-MS/MS analysis", "type": "ADME, Microsome", "details": "macaca, 2 h, 10 µM, dose 10 µmol/L"}, "[8]": {"test": "Metabolic stability in rat liver microsomes assessed as drug elimination at 10 umol/L incubated for 5 mins in presence of NADPH by LC-MS/MS analysis", "type": "ADME, Microsome", "details": "10 µM, dose 10 µmol/L"}, "[9]": {"test": "Half life in Sprague-Dawley rat at 1 mg/kg, iv measured for 24 hrs by UPLC/MS/MS analysis", "type": "ADME, organism-based", "details": "in vivo"}, "[10]": {"test": "Apparent oral clearance in Sprague-Dawley rat at 1 mg/kg, po measured for 24 hrs by UPLC/MS/MS analysis", "type": "ADME, organism-based", "details": "in vivo"}, "[11]": {"test": "Oral bioavailability in Sprague-Dawley rat at 1 mg/kg measured for 24 hrs by UPLC/MS/MS analysis", "type": "ADME, organism-based", "details": "in vivo"}, "[12]": {"test": "Half life in Sprague-Dawley rat at 3 mg/kg, po measured for 24 hrs by UPLC/MS/MS analysis", "type": "ADME, organism-based", "details": "in vivo"}, "[13]": {"test": "Cmax in Sprague-Dawley rat at 3 mg/kg, po measured for 24 hrs by UPLC/MS/MS analysis", "type": "ADME, organism-based", "details": "in vivo"}, "[14]": {"test": "Oral bioavailability in Sprague-Dawley rat at 3 mg/kg measured for 24 hrs by UPLC/MS/MS analysis", "type": "ADME, organism-based", "details": "in vivo"}, "Rattus norvegicus [15]": {"system": "Rattus norvegicus", "test": "Antihypertensive activity in 2K2C renovascular hypertensive Sprague-Dawley rat model assessed as decrease in diastolic blood pressure at 10 mg/kg, po measured after 9 weeks", "type": "functional, organism-based"}, "Rattus norvegicus [16]": {"system": "Rattus norvegicus", "test": "Effect on serum K+ level in 2K2C renovascular hypertensive Sprague-Dawley rat model at 10 mg/kg, po measured after 9 weeks by biochemical analysis", "type": "functional, organism-based"}, "Rattus norvegicus [17]": {"system": "Rattus norvegicus", "test": "Effect on postural hypotension in Sprague-Dawley rat assessed as change in systolic blood pressure at 2.5 mg/kg, po treated for >30 mins followed by induction of postural hypotension measured immediately after postural change (reference value: 131 +/- 9 mmHg)", "type": "functional", "details": "0.5 h"}, "Rattus norvegicus [18]": {"system": "Rattus norvegicus", "test": "Effect on postural hypotension in Sprague-Dawley rat assessed as change in systolic blood pressure at 5 mg/kg, po treated for >30 mins followed by induction of postural hypotension measured immediately after postural change (reference value: 131 +/- 9 mmHg)", "type": "functional", "details": "0.5 h"}, "Rattus norvegicus [19]": {"system": "Rattus norvegicus", "test": "Effect on postural hypotension in Sprague-Dawley rat assessed as change in systolic blood pressure at 10 mg/kg, po treated for >30 mins followed by induction of postural hypotension measured 5 secs after postural change (reference value: 126 +/- 12 mmHg)", "type": "functional", "details": "time > 30.08 min, 0.5013 h"}, "Rattus norvegicus [20]": {"system": "Rattus norvegicus", "test": "Effect on postural hypotension in Sprague-Dawley rat assessed as change in systolic blood pressure at 10 mg/kg, po treated for >30 mins followed by induction of postural hypotension measured 10 secs after postural change (reference value: 127 +/- 12 mmHg)", "type": "functional", "details": "time > 30.17 min, 0.5028 h"}, "Rattus norvegicus [21]": {"system": "Rattus norvegicus", "test": "Effect on postural hypotension in Sprague-Dawley rat assessed as change in systolic blood pressure at 5 mg/kg, po treated for >30 mins followed by induction of postural hypotension measured 40 secs after postural change (reference value: 128 +/- 11 mmHg)", "type": "functional", "details": "time > 30.67 min, 0.5112 h"}, "Rattus norvegicus [22]": {"system": "Rattus norvegicus", "test": "Effect on postural hypotension in Sprague-Dawley rat assessed as change in systolic blood pressure at 10 mg/kg, po treated for >30 mins followed by induction of postural hypotension measured 40 secs after postural change (reference value: 128 +/- 11 mmHg)", "type": "functional", "details": "time > 30.67 min, 0.5112 h"}, "Rattus norvegicus [23]": {"system": "Rattus norvegicus", "test": "Effect on postural hypotension in Sprague-Dawley rat assessed as change in systolic blood pressure at 5 mg/kg, po treated for >30 mins followed by induction of postural hypotension measured 60 secs after postural change (reference value: 127 +/- 10 mmHg)", "type": "functional", "details": "time > 31 min"}, "Rattus norvegicus [24]": {"system": "Rattus norvegicus", "test": "Effect on postural hypotension in Sprague-Dawley rat assessed as change in systolic blood pressure at 10 mg/kg, po treated for >30 mins followed by induction of postural hypotension measured 60 secs after postural change (reference value: 127 +/- 10 mmHg)", "type": "functional", "details": "time > 31 min"}, "[25]": {"test": "Acute toxicity in Sprague-Dawley rat assessed as change in morphology of animal at 250 to 1000 mg/kg, po single administration measured for 14 days", "type": "organism-based", "details": "in vivo, 336 h, dose 250-1000 mg/kg, time 14 day"}, "[26]": {"test": "Tmax in male Sprague-Dawley rat at 10 mg/kg, po measured on day 1 by UP/LC/MS/MS analysis", "type": "ADME, organism-based", "details": "in vivo, time 1 day"}, "[27]": {"test": "Tmax in male Sprague-Dawley rat at 100 mg/kg, po measured on day 1 by UP/LC/MS/MS analysis", "type": "ADME, organism-based", "details": "in vivo, time 1 day"}, "[28]": {"test": "Cmax in male Sprague-Dawley rat at 10 mg/kg, po measured on day 1 by UP/LC/MS/MS analysis", "type": "ADME, organism-based", "details": "in vivo, time 1 day"}, "[29]": {"test": "Tmax in female Sprague-Dawley rat at 10 mg/kg, po qd treated for 13 weeks consecutively measured after recovery period on day 91 by UP/LC/MS/MS analysis", "type": "ADME, organism-based", "details": "in vivo, time 91 day"}, "[30]": {"test": "Tmax in male Sprague-Dawley rat at 30 mg/kg, po qd treated for 13 weeks consecutively measured after recovery period on day 91 by UP/LC/MS/MS analysis", "type": "ADME, organism-based", "details": "in vivo, time 91 day"}, "[31]": {"test": "Cmax in female Sprague-Dawley rat at 10 mg/kg, po qd treated for 13 weeks consecutively measured after recovery period on day 91 by UP/LC/MS/MS analysis", "type": "ADME, organism-based", "details": "in vivo, time 91 day"}, "[32]": {"test": "Cmax in male Sprague-Dawley rat at 100 mg/kg, po qd treated for 13 weeks consecutively measured after recovery period on day 91 by UP/LC/MS/MS analysis", "type": "ADME, organism-based", "details": "in vivo, time 91 day"}, "[33]": {"test": "Toxicity in Sprague-Dawley rat assessed as drug tolerance at 10 to 100 mg/kg, po qd treated for 13 weeks", "type": "organism-based", "details": "in vivo, 2184 h, dose 10-100 mg/kg"}, "[34]": {"test": "Toxicity in Sprague-Dawley rat at 10 to 100 mg/kg, po qd treated for 13 weeks", "type": "organism-based", "details": "in vivo, dose 10-100 mg/kg"}}, "note": "pIC50, pKi: −log10 of the molar value. The source made the active and inactive calls. The rule behind the calls is not given here.", "data": [{"compound": "Cl.c1ccc2c(c1)nnn2CCCCN1CCN(c2nsc3ccccc23)CC1", "values": [{"measurement": "inhibition", "setting": "[1]", "result": 96, "unit": "%"}, {"measurement": "pIC50", "setting": "[2]", "result": 9.57}, {"measurement": "pKi", "setting": "[2]", "result": 10.10}, {"measurement": "fraction unbound at 0.5 h, 0.1 µM", "setting": "[3]", "result": 0.022}, {"measurement": "fraction unbound at 0.5 h, 1 µM", "setting": "[4]", "result": 0.019}, {"measurement": "Stability", "setting": "[5]", "result": "Stable"}, {"measurement": "Drug metabolism", "setting": "[6]", "result": "Metabolite_Detected"}, {"measurement": "Drug metabolism", "setting": "[7]", "result": "Metabolite_Detected"}, {"measurement": "Drug excretion", "setting": "[8]", "result": "Active"}, {"measurement": "half-life", "setting": "[9]", "result": 1.3, "unit": "h"}, {"measurement": "CL/F", "setting": "[10]", "result": 388, "unit": "mL/min"}, {"measurement": "bioavailability", "setting": "[11]", "result": 11.7, "unit": "%"}, {"measurement": "half-life", "setting": "[12]", "result": 2.15, "unit": "h"}, {"measurement": "Cmax", "setting": "[13]", "result": 85.7, "unit": "ng/mL"}, {"measurement": "bioavailability", "setting": "[14]", "result": 31.9, "unit": "%"}, {"measurement": "Activity", "setting": "Rattus norvegicus [15]", "result": "Active"}, {"measurement": "Activity", "setting": "Rattus norvegicus [16]", "result": "Active"}, {"measurement": "Activity", "setting": "Rattus norvegicus [17]", "result": 96, "unit": "mmHg"}, {"measurement": "Activity", "setting": "Rattus norvegicus [18]", "result": 89, "unit": "mmHg"}, {"measurement": "Activity", "setting": "Rattus norvegicus [19]", "result": 81, "unit": "mmHg"}, {"measurement": "Activity", "setting": "Rattus norvegicus [20]", "result": 84, "unit": "mmHg"}, {"measurement": "Activity", "setting": "Rattus norvegicus [21]", "result": 83, "unit": "mmHg"}, {"measurement": "Activity", "setting": "Rattus norvegicus [22]", "result": 85, "unit": "mmHg"}, {"measurement": "Activity", "setting": "Rattus norvegicus [23]", "result": 83, "unit": "mmHg"}, {"measurement": "Activity", "setting": "Rattus norvegicus [24]", "result": 85, "unit": "mmHg"}, {"measurement": "Activity", "setting": "[25]", "result": "Non-Toxic"}, {"measurement": "Tmax", "setting": "[26]", "result": 1, "unit": "h"}, {"measurement": "Tmax", "setting": "[27]", "result": 1.3, "unit": "h"}, {"measurement": "Cmax", "setting": "[28]", "result": 19.2, "unit": "ng/mL"}, {"measurement": "Tmax", "setting": "[29]", "result": 1, "unit": "h"}, {"measurement": "Tmax", "setting": "[30]", "result": 1, "unit": "h"}, {"measurement": "Cmax", "setting": "[31]", "result": 140, "unit": "ng/mL"}, {"measurement": "Cmax", "setting": "[32]", "result": 538, "unit": "ng/mL"}, {"measurement": "Activity", "setting": "[33]", "result": "Non-Toxic"}, {"measurement": "NOAEL at 2184 h", "setting": "[34]", "result": 100, "unit": "mg/kg"}]}]}
